Test [1] addresses human O-GlcNAcase (Homo sapiens (Human), UniProt O60502). Nature of the test: Fluorescence-based assay for determination of KI values for inhibition of O-GlcNAcase activity. The conditions noted are these: purified human O-GlcNAcase, 4-Methylumbelliferyl N-acetyl-β-D-glucosaminide substrate, pH 7.0, Cheng-Prusoff; read-out: Fluorescence-based hOGA Ki. The class given is biochemical. The protocol: Assay for Determination of KI Values for Inhibition of O-GlcNAcase Activity
Experimental Procedure for Kinetic Analyses
Enzymatic reactions are carried out in a reaction containing 50 mM NaH2PO4, 100 mM NaCl and 0.1% BSA (pH 7.0) using 2 mM 4-Methylumbelliferyl N-acetyl-β-D-glucosaminide dihydrate (Sigma M2133) dissolved in ddH2O, as a substrate. The amount of purified human O-GlcNAcase enzyme used in the reaction is 0.7 nM. Test compound of varying concentrations is added to the enzyme prior to initiation of the reaction. The reaction is performed at room temperature in a 96-well plate and is initiated with the addition of substrate. […] The slope of product production is determined for each concentration of compound tested and plotted, using standard curve fitting algorithms for sigmoidal dose response curves. The values for a four parameter logistic curve fit of the data are determined.

Test [2] addresses O-GlcNAcase (Rattus norvegicus, UniProt Q8VIJ5). Put plainly: Cell-based ELISA for cellular activity of O-GlcNAcase inhibitors (O-GlcNAcylated protein level, RL-2 antibody). Conditions: increase in O-GlcNAcylated protein, cells treated 24 hours, RL-2 antibody ELISA. From the text: Assay for Determination of Cellular Activity for Compounds that Inhibit O-GlcNAcase Activity
Inhibition of O-GlcNAcase, which removes O-GlcNAc from cellular proteins, results in an increase in the level of O-GlcNAcylated protein in cells. An increase in O-GlcNAcylated protein can be measured by an antibody, such as RL-2, that binds to O-GlcNAcylated protein. The amount of O-GlcNAcylated protein:RL2 antibody interaction can be measured by enzyme linked immunosorbant assay (ELISA) procedures.
Background: An ELISA detects its analyte on a solid surface through an enzyme-linked reagent.

Sequence of O-GlcNAcase (Q8VIJ5 whole entry, looked up): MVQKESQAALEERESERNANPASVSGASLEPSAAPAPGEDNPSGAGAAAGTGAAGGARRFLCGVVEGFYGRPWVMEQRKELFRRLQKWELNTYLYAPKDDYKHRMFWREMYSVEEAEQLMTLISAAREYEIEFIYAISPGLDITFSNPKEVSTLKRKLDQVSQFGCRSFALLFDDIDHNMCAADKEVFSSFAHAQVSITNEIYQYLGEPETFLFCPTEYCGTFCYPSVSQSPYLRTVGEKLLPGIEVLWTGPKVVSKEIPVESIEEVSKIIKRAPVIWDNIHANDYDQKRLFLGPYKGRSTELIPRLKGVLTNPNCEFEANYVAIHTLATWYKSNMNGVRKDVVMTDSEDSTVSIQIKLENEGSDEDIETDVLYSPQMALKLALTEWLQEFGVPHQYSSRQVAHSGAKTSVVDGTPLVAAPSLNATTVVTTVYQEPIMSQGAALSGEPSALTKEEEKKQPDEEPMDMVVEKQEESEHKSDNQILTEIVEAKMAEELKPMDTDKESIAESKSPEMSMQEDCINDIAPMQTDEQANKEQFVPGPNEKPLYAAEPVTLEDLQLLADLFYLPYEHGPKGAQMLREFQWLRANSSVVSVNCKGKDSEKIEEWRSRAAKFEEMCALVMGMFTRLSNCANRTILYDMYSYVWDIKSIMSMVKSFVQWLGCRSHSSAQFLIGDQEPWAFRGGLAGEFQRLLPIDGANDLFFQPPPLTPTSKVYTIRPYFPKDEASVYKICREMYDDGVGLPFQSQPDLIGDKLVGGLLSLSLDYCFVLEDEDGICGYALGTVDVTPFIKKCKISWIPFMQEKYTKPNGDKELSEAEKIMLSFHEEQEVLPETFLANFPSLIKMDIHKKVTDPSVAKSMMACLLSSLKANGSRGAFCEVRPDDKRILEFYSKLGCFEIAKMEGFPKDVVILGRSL
Sequence of human O-GlcNAcase (O60502 whole entry): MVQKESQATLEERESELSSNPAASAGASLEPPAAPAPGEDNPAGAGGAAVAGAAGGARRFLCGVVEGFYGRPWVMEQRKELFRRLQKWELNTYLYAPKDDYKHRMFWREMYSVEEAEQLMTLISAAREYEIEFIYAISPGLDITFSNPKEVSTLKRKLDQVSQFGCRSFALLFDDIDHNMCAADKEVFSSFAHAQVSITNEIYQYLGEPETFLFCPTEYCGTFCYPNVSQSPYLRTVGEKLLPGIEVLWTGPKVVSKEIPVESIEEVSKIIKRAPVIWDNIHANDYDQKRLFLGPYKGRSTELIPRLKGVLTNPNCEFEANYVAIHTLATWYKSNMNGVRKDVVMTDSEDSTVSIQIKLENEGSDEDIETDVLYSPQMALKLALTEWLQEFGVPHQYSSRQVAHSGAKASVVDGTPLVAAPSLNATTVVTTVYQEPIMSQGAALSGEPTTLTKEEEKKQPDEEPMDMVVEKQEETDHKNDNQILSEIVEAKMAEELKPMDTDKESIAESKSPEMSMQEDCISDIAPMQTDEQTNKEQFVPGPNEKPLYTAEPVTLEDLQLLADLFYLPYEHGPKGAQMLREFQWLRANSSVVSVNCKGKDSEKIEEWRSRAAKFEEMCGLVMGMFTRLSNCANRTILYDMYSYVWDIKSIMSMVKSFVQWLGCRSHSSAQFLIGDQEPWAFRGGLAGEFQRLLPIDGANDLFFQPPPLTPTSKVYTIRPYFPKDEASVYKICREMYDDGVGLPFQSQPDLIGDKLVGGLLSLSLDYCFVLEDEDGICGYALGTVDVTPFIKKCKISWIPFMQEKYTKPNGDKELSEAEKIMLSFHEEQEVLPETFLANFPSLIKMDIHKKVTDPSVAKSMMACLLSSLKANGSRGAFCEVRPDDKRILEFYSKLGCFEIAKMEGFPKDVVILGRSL

As for `CN(C)C1=N[C@@H]2[C@@H](OCc3ccccc3)[C@H](COCc3ccccc3)[C@@H](C(O)C3SCCCS3)O[C@@H]2S1` (some centres unmarked) [Example 96], the Ki (in general, the equilibrium dissociation constant of an inhibitor or competing ligand from its target) in test [1] worked out at 0.19 nM. Further, the EC50 – broadly, the midpoint of the concentration-response curve – in test [2] is 4.55 nM.

The values are drawn from patent US8901087B2, “Selective glycosidase inhibitors and uses thereof” (priority 2010, dated 2014).
